According to PubChem BioAssay (NCI):
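Growth conditions: 96-well plates. Treatment: test compound, 48 hours, 5 concentrations. Analysis: linear interpolation between bracketing concentrations; unreached endpoints set to highest concentration. TGI: total growth inhibition.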

Tests used:
Assay in all cases: NCI anticancer screen, dose series, 48 h
OVCAR-3 ovarian = tested on: OVCAR-3 ovarian
NCI-H460 lung = tested on: NCI-H460 lung
CAKI-1 renal = tested on: CAKI-1 renal
DLD-1 colon = tested on: DLD-1 colon
HL-60(TB) leukemia = tested on: HL-60(TB) leukemia
RXF-631 renal = tested on: RXF-631 renal
KM12 colon = tested on: KM12 colon
KM20L2 colon = tested on: KM20L2 colon
MOLT-4 leukemia = tested on: MOLT-4 leukemia
DMS 273 small cell lung = tested on: DMS 273 small cell lung
UACC-257 melanoma = tested on: UACC-257 melanoma
HCT-15 colon = tested on: HCT-15 colon
HOP-18 NSCLC = tested on: HOP-18 NSCLC
TK-10 renal = tested on: TK-10 renal
HCC-2998 colon = tested on: HCC-2998 colon
HOP-92 NSCLC = tested on: HOP-92 NSCLC
SF-539 CNS = tested on: SF-539 CNS
M19-MEL melanoma = tested on: M19-MEL melanoma
SNB-75 CNS = tested on: SNB-75 CNS
U251 CNS = tested on: U251 CNS
RXF 393 renal = tested on: RXF 393 renal
ACHN renal = tested on: ACHN renal
MALME-3M melanoma = tested on: MALME-3M melanoma
CCRF-CEM leukemia = tested on: CCRF-CEM leukemia
UACC-62 melanoma = tested on: UACC-62 melanoma
SK-MEL-28 melanoma = tested on: SK-MEL-28 melanoma
K-562 leukemia = tested on: K-562 leukemia
IGROV1 ovarian = tested on: IGROV1 ovarian
SK-OV-3 ovarian = tested on: SK-OV-3 ovarian
A549 NSCLC = tested on: A549 NSCLC
NCI-H23 lung = tested on: NCI-H23 lung
SF-295 CNS = tested on: SF-295 CNS
OVCAR-4 ovarian = tested on: OVCAR-4 ovarian
786-0 renal = tested on: 786-0 renal
LOX IMVI melanoma = tested on: LOX IMVI melanoma
SF-268 CNS = tested on: SF-268 CNS
NCI-H522 lung = tested on: NCI-H522 lung
SK-MEL-2 melanoma = tested on: SK-MEL-2 melanoma
LXFL 529 NSCLC = tested on: LXFL 529 NSCLC
SW-620 colon = tested on: SW-620 colon
SNB-19 CNS = tested on: SNB-19 CNS
EKVX NSCLC = tested on: EKVX NSCLC
RPMI-8226 leukemia = tested on: RPMI-8226 leukemia
M14 melanoma = tested on: M14 melanoma
HT29 colon = tested on: HT29 colon
SN12C renal = tested on: SN12C renal
COLO 205 colon = tested on: COLO 205 colon
UO-31 renal = tested on: UO-31 renal
OVCAR-8 ovarian = tested on: OVCAR-8 ovarian
SK-MEL-5 melanoma = tested on: SK-MEL-5 melanoma
OVCAR-5 ovarian = tested on: OVCAR-5 ovarian
HOP-62 NSCLC = tested on: HOP-62 NSCLC
DMS 114 small cell lung = tested on: DMS 114 small cell lung

Measured: TGI

CCOC(=O)/C(C#N)=C/c1[nH]c(C(=O)OCc2ccccc2)c(C)c1C
> 100 µM: all assays above
